Assay results from PubChem BioAssay (NCI).
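Dose response: 5 concentrations. Exposure: 48 h. Format: 96-well plates. Endpoint: linear interpolation; highest concentration if not reached. GI50 marks 50% less growth. TGI marks complete inhibition of growth.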

Key:
Assay in all cases: DTP human tumour cell line panel, 48 h
COLO 205 colon = tested on: COLO 205 colon
HCC-2998 colon = tested on: HCC-2998 colon
HL-60(TB) leukemia = tested on: HL-60(TB) leukemia
HT29 colon = tested on: HT29 colon
OVCAR-5 ovarian = tested on: OVCAR-5 ovarian
SK-MEL-2 melanoma = tested on: SK-MEL-2 melanoma
SN12C renal = tested on: SN12C renal
UO-31 renal = tested on: UO-31 renal
HS 578T breast = tested on: HS 578T breast
NCI/ADR-RES ovarian = tested on: NCI/ADR-RES ovarian

| Structure (SMILES) | TGI (COLO 205 colon) [µM] | TGI (HCC-2998 colon) [µM] | TGI (HL-60(TB) leukemia) [µM] | TGI (HT29 colon) [µM] | TGI (OVCAR-5 ovarian) [µM] | TGI (SK-MEL-2 melanoma) [µM] | TGI (SN12C renal) [µM] | TGI (UO-31 renal) [µM] | GI50 (HCC-2998 colon) [µM] | GI50 (HS 578T breast) [µM] | TGI (HS 578T breast) [µM] | GI50 (HT29 colon) [µM] | GI50 (OVCAR-5 ovarian) [µM] | GI50 (SK-MEL-2 melanoma) [µM] | GI50 (UO-31 renal) [µM] | GI50 (COLO 205 colon) [µM] | GI50 (HL-60(TB) leukemia) [µM] | GI50 (NCI/ADR-RES ovarian) [µM] | TGI (NCI/ADR-RES ovarian) [µM] | GI50 (SN12C renal) [µM] |
| --- | --- | --- | --- | --- | --- | --- | --- | --- | --- | --- | --- | --- | --- | --- | --- | --- | --- | --- | --- | --- |
| CN(C)CC(/C(Cc1ccccc1)=N\NC(=O)c1ccncc1)c1ccccc1 (configuration not stated) | > 100 | > 100 | 32 | > 100 | > 100 | 42.1 | > 100 | – | – | – | – | – | – | – | – | – | – | – | – | – |
| N/N=C(\CC1OC(=O)c2ccccc21)c1ccco1 (configuration not stated) | > 100 | > 100 | > 100 | > 100 | > 100 | > 100 | – | > 100 | – | – | – | – | – | – | – | – | – | – | – | – |
| CC1(CO)OC1COCc1ccccc1 (configuration not stated) | > 100 | – | > 100 | > 100 | > 100 | > 100 | > 100 | > 100 | – | – | – | – | – | – | – | – | – | – | – | – |
| CC1Cc2c(N)nc(NN)nc2NC1=O (configuration not stated) | > 100 | – | > 100 | > 100 | – | – | > 100 | > 100 | – | – | – | – | – | – | – | – | – | – | – | – |
| Nc1nc(Nc2ccc3c(c2)CC[C@@H](N2CCCC2)CC3)nn1-c1cc2c(nn1)-c1ccccc1CCC2 | – | 3.1 | – | 4.01 | 3.29 | 3.89 | – | 2.19 | 1.61 | 1.79 | 4.86 | 1.08 | 1.63 | 1.93 | 0.936 | – | – | – | – | – |
| CC(=O)OCSc1ncnc2c1ncn2CN1CCOCC1 | 53.1 | > 100 | > 100 | 94.8 | > 100 | > 100 | > 100 | > 100 | – | – | – | – | – | – | – | – | – | – | – | – |
| O=C(O)c1c2c(c(C(=O)O)c3ccccc13)-c1ccccc1-2 | > 100 | > 100 | > 100 | > 100 | > 100 | 97.1 | > 100 | > 100 | – | – | – | – | – | – | – | – | – | – | – | – |
| COc1ccc(C2S/C(=C\c3cc(OC)c(OC)c(OC)c3)C(=O)N2NC(=O)Cc2ccccc2)cc1 (configuration not stated) | > 100 | – | > 100 | > 100 | > 100 | > 100 | > 100 | > 100 | – | – | – | – | – | – | – | – | – | – | – | – |
| COc1ccc(C(=O)C(c2ccc(OC)cc2)C2(O)C(=O)Nc3c(C)cc(Cl)cc32)cc1 (configuration not stated) | > 100 | > 100 | > 100 | > 100 | > 100 | > 100 | > 100 | > 100 | – | – | – | – | – | – | – | – | – | – | – | – |
| O=[N+]([O-])c1ccc(Sc2c3ccccc3nc3ccccc23)cc1 | > 100 | > 100 | > 100 | > 100 | > 100 | > 100 | > 100 | > 100 | – | – | – | – | – | – | – | – | – | – | – | – |
| Cc1cccc(C)c1NC(=O)CCCC(=O)CC(=O)/C=C/c1ccccc1 | > 100 | – | – | > 100 | > 100 | > 100 | > 100 | > 100 | – | – | – | – | – | – | – | – | – | – | – | – |
| COC1/C=C\C=C(/C)C(=O)Nc2cc3nc4ccc(Br)cc4oc-3c(c2=O)CC(C)CC(OC)C(O)C(C)/C=C(\C)C1OC(N)=O (configuration not stated) | 0.169 | 3.2 | – | 7.91 | 5.88 | 24.5 | 6.36 | 4.05 | 0.00856 | – | 22.9 | – | 0.00434 | – | – | 0.000903 | 0.000389 | – | – | – |
| COc1ccc(/C=C2\CN(C(=O)C(Cl)Cl)C/C(=C\c3ccc(OC)c(OC)c3)C2=O)cc1OC | 1.6 | 1.44 | 0.711 | – | – | > 100 | – | 0.423 | 0.39 | – | – | 0.0781 | – | 1.85 | 0.184 | 0.307 | 0.221 | 0.0864 | > 67.5 | – |
| CCOC(=O)/C(=C\c1ccc(OCc2ccccc2)c(OC)c1)C(=O)c1ccccc1 | 99.2 | > 100 | 49 | – | 48.6 | 40.7 | 45.6 | 32.4 | – | – | – | – | – | – | – | – | – | – | – | – |
| O=C(CNC(=O)OCc1ccccc1)Oc1ccccc1 | > 100 | > 100 | > 100 | > 100 | > 100 | > 100 | > 100 | > 100 | – | – | – | – | – | – | – | – | – | – | – | – |
| N#CC1=C(N)OC2=C(COc3ccc(F)cc32)C1c1ccc(Cl)cc1 (configuration not stated) | – | 60.2 | 86 | > 100 | > 100 | > 100 | > 100 | > 100 | 25.6 | – | – | 50.4 | 41.6 | 35.1 | 48.5 | – | 33.5 | 19.1 | 48.8 | 28.3 |
| CC(C)=CC(=O)Oc1ccc([N+](=O)[O-])cc1 | > 100 | > 100 | 59.5 | > 100 | > 100 | > 100 | > 100 | > 100 | – | – | – | – | – | – | – | – | – | – | – | – |
